Data reported in patent US8088951B2, “Epigenetic mechanisms re-establish access to long-term memory after neuronal loss” (Massachusetts Institute of Technology, priority 2006, dated 2012).
Entries after “also recorded” stand apart in the source; their conditions may differ.

Legend:
Assay type in all cases: in vivo
C57BL/6J mice = test: Water maze paradigm (spatial learning) in wild type mice; settings: daily ip for 4 weeks; vs vehicle group; P<0.0001
From the text: (§1) Learning tests: All behavioral testing is described in Fischer et al. (3).
Mechanism underlying EE. Other than a few genes involved in synaptic function, relatively little is known about the mechanism underlying EE (12-14). Since histone acetylation, an epigenetic mechanism regulating gene expression via chromatin remodeling, has recently been implicated in synaptic plasticity and learning behavior (15-18), the induction of a transcriptional program by EE that leads to activation of plasticity genes was evaluated. Wild type mice were subjected to EE and hippocampal and cortical brain lysates were obtained 3, 24 h or 2 weeks later (n=3/group) by acid extraction and probed with antibodies detecting histone-tail modification that indicate active chromatin. Increases in hippocampal H3 (K-9, K14) and H4 (K-5) and in cortical H3 (K-9) and H4 (K-5) acetylation were observed. […] No changes in H4 acetylation were observed when the Ac-H4 (K,8,12,16) antibody was used, which is likely due to the fact that H4-K16 is a marker of condensed chromatin. EE induced hippocampal and cortical histone 3 (H3) and histone 4 (H4) acetylation and methylation as soon as 3 hours after treatment (FIGS. 3a, b). […]
The over expression of HDAC2 impairs spatial learning. […] The swimming path of the mice was recorded by a video camera and analyzed by the Videomot 2 software (TSE). […]

H3 and H4 acetylation = test: Histone acetylation in hippocampal lysates of wild type mice (immunoblot); settings: daily ip for 4 weeks
Protocol: Immunoblotting and staining: Lysates for immunoblotting were prepared as described by Fischer et al. (3). To isolate histones, brain tissue was homogenized in TX-buffer (50 mM Tris HCL, 150 mM NACL, 2 mM EDTA, 1% Triton-100) and incubated at 4° C. for 15 min prior to centrifugation at 200 rpm for 10 min. After a wash-step in TX-buffer the pellet was dissolved in TX-buffer containing 0.2M HCl and incubated on ice for 30 min, before a second centrifugation at 10000 rpm for 10 min. The supernatant was either dialysed or directly used for immunoblotting. Antibodies were used in 1:1000 concentrations. All antibodies detecting histones and anti-PSD-95 were form Upstate (Lake Placid, N.Y.). Anti-synaptophysin (SVP38) was from Sigma. Anti-neuronal nuclei (neuN) and anti-growth associated protein (Gap43) were from Chemicon (Temecula, Calif.) and anti-N-cadherin, anti-β-catenin were from Santa Cruz (Santa Cruz, Calif.). Immunostaining was performed as described by Fischer et al. (3). Antibodies mentioned above were used in a 1:500 dilution. […]
Mechanism underlying EE. […] Since histone acetylation, an epigenetic mechanism regulating gene expression via chromatin remodeling, has recently been implicated in synaptic plasticity and learning behavior (15-18), the induction of a transcriptional program by EE that leads to activation of plasticity genes was evaluated. […]

CK-p25 Tg mice [1] = test: Fear conditioning learning in CK-p25 Tg mice after neurodegeneration; settings: 6 weeks p25 induction, then daily 1.2 g/kg for 4 weeks, vs saline, P=0.009
From the text: as §1
(§2) Reinstatement of learning behavior through inhibition of HDAC. Whether sustained inhibition of HDACs would reinstate learning behavior and recover access to long-term memories in CK-p25 Tg mice that had developed synaptic and neuronal loss was investigated. P25 was induced in 11 month old CK-p25 Tg mice for 6 weeks. Afterwards p25 expression was repressed and one group of CK-p25 Tg mice was subjected to daily sodiumbutyrate (SB) injection (1.2 g/kg) for 4 weeks (n=9), whereas the other group received saline injection (n=9). […] To this end p25 expression was induced in 11-month old CK-p25 mice for 6 weeks, before one group was injected daily for 4 weeks with SB whereas the control group received saline injection (FIG. 4a).

CK-p25 Tg mice [2] = test: Water maze learning in CK-p25 Tg mice after neurodegeneration; settings: 6 weeks p25 induction, then daily 1.2 g/kg for 4 weeks, vs vehicle, P<0.0001
From the text: as §1, §2

[3] = tested on: MAP-2, synaptophysin (SVP), synaptic marker proteins; test: Synaptic plasticity markers in CK-p25 Tg mice (immunostaining, immunoblot)
Protocol: Immunoblotting and staining: Lysates for immunoblotting were prepared as described by Fischer et al. (3). To isolate histones, brain tissue was homogenized in TX-buffer (50 mM Tris HCL, 150 mM NACL, 2 mM EDTA, 1% Triton-100) and incubated at 4° C. for 15 min prior to centrifugation at 200 rpm for 10 min. After a wash-step in TX-buffer the pellet was dissolved in TX-buffer containing 0.2M HCl and incubated on ice for 30 min, before a second centrifugation at 10000 rpm for 10 min. The supernatant was either dialysed or directly used for immunoblotting. Antibodies were used in 1:1000 concentrations. All antibodies detecting histones and anti-PSD-95 were form Upstate (Lake Placid, N.Y.). Anti-synaptophysin (SVP38) was from Sigma. Anti-neuronal nuclei (neuN) and anti-growth associated protein (Gap43) were from Chemicon (Temecula, Calif.) and anti-N-cadherin, anti-β-catenin were from Santa Cruz (Santa Cruz, Calif.). Immunostaining was performed as described by Fischer et al. (3). Antibodies mentioned above were used in a 1:500 dilution. Anti-MAP-2 antibody (Sigma) was used in a 1:200 dilution.
LSMeta10 software (Zeiss; Jena, Germany) was used to calculate the mean SVP intensity. Brain sections with the strongest intensity were scanned first. All other images included in the analysis where scanned using the same microscope setting. […] Scale bar: 20 μm. py, pyramidal cell layer (FIG. 1g).
For SB treatment, p25 was induced in 11 month old CK-p25 Tg mice for 6 weeks. Afterwards p25 expression was repressed and one group of CK-p25 Tg mice was subjected to daily sodiumbutyrate (SB) injection (1.2 g/kg) for 4 weeks, whereas the other group received saline injection. […] Representative images showing hippocampal MAP-2 staining are depicted in FIG. 7f. MAP-2 immunoreactivity of CK-p25 Tg mice treated with SB is increased when compared to the vehicle group. Representative images showing NeuN staining of the ACC.

CK-p25 Tg mice [4] = test: Recovery of long-term fear memories in CK-p25 Tg mice; settings: CK-p25 Tg mice trained, 4 weeks rest, 6 weeks p25, then 1.2 g/kg daily for 4 weeks; P=0.0496
Protocol: The effect of HDAC inhibition on the recovery of inaccessible long-term memories was evaluated. Eleven month old CK-p25 Tg mice were trained in the fear conditioning paradigm and returned to their home cages for 4 weeks. Subsequently p25 was induced for 6 weeks before the mice were injected with either saline (vehicle, n=12) or SB (1.2 g/kg, n=14) for 4 weeks (daily). […] (FIG. 4f). […] Thus chronic injection of SB led to the recovery of memories in CK-p25 Tg mice that had developed severe neuronal loss.

**Q.** How did the “escape latency in water maze paradigm” value (C57BL/6J mice) turn out when `CCCC(=O)[O-].[Na+]` [SB, sodiumbutyrate] was run?
**A.** shorter escape latency

**Q.** What about the “H3- and H4 acetylation in the hippocampus” value (H3 and H4 acetylation) of the same compound?
**A.** robust increase

**Q.** What about the “associative learning (freezing behavior)” value (CK-p25 Tg mice [1]) of the same compound?
**A.** significantly enhanced

**Q.** What about the “spatial learning (escape latency)” value (CK-p25 Tg mice [2]) of the same compound?
**A.** significantly shorter escape latency

**Q.** What about the “levels of synaptic marker proteins (markers for synaptic plasticity and integrity)” value ([3]; CK-p25 Tg mice, daily 1.2 g/kg for 4 weeks, hippocampus and cortex, vs vehicle) of the same compound?
**A.** increased levels of synaptic marker proteins; also recorded: several markers for synaptic plasticity and integrity were increased

**Q.** What about the “hippocampal MAP-2 immunoreactivity” value ([3]; CK-p25 Tg mice, daily 1.2 g/kg for 4 weeks, vs vehicle) of the same compound?
**A.** increased

**Q.** What about the “levels of synaptic marker proteins” value ([3]; CK-p25 Tg mice, long-term memory experiment, vs vehicle group) of the same compound?
**A.** elevated levels of synaptic marker proteins

**Q.** And the “MAP-IR in the ACC” value ([3]; CK-p25 Tg mice, vs vehicle treated)?
**A.** MAP-IR was increased

**Q.** What about the “hippocampal SVP-IR” value ([3]; CK-p25 mice, vs vehicle-injected, P<0.0001) of the same compound?
**A.** increased hippocampal SVP-IR

**Q.** What about the “freezing behavior in long-term memory test” value (CK-p25 Tg mice [4]) of the same compound?
**A.** performed significantly better than vehicle injected CK-p25 Tg mice
